This note sets out measurements from patent US20240261274A1, “TREATMENT OF MYC-DRIVEN CANCERS WITH GSPT1 DEGRADERS” (MONTE ROSA THERAPEUTICS, INC., priority 2021, published 2024).

SMILES strings stand for the structures.

Series [1] relates to MM1 S multiple myeloma cell line derived xenograft. The series is described as follows: MM1 S multiple myeloma CDX efficacy study. Particulars: oral daily 1, 3 and 10 mg/kg. It is filed as in vivo, immunodeficient mice. As to the method:
Cell line derived xenograft (CDX) models were produced for the MM1 S multiple myeloma (MM) cell line in immunodeficient mice. Oral dosing of Compound 345 was performed daily at doses of 1 mg/kg, 3 mg/kg, and 10 mg/kg as well as lenalidomide at 50 mg/kg and a no-drug vehicle control. Tumor volumes were measured (mm^3) at regular intervals over the course of 20 to 50 days depending on the animal.
In vivo efficacy study: NCI-H1155, MM1 S, WSU-DLCL2, DOHH-2 cells were maintained in vitro in individual medium and conditions as recommended by the providers and incubated at 37° C. in an atmosphere of 5% CO2 in air. 0.5 million (NCI-H1155), 10 million (MM1S) or 5 million (WSU-DLCL2 and DOHH-2) cells were resuspended in typically 0.1-0.2 mL of PBS with Matrigel (50:50) and were inoculated into 6-8 weeks old BALB/c nude female (NCI-H115, WSU-DLCL2), NOD/SCID (MM1S) or CB-17SCID (DOHH-2) mice and allowed to grow to 150-200 mm3 in size. Mice were dosed orally (PO) and daily (QD) with either vehicle or Compound 345 typically at 1.0 mg/kg, 3.0 mg/kg and 10 mg/kg. […] Tumor volumes were measured at least twice weekly during the treatment period using a caliper and the volume was expressed in mm3 using the formula: V=0.5 a×b2 where a and b were the long and short diameters of the tumor, respectively. […] Data are expressed as the mean±SEM. All data was analyzed using GraphPad Prism 8.1.2 (GraphPad).

Series [2] deals with L-Myc. The series is described as follows: L-Myc levels in SCLC lines after Compound 345 (western blot). It counts as cell-based. Particulars: SCLC lines NCI-H1836 and NCI-H1876. From the text:
NCI-H1836 and NCI-H1876 were taken as two representatives of L-Myc high SCLC. Western blot analysis probing for GSPT1 and L-Myc following treatment with Compound 345 as indicated. GAPDH was used as a loading control.

The target in series [3] is T1, GSPT1 (Homo sapiens, UniProt P15170+Q96SW2). As to the kind of experiment: GSPT1 levels in NCI-H1155 tumors (Compound 345). It is filed as in vivo, mice. Set-up: from tissue; host or cells: NCI-H1155 subcutaneous xenograft tumours from BALB/c nude mice. Conditions: day 5, 1 mg/kg and 10 mg/kg, strongest effect at 10 mg/kg. The method, then: Additionally, plasma concentrations of Compound 345 and levels of GSPT1 and […] (relative to vehicle-only control) were measured in a time-course experiment on day 5 for the animals receiving 1 mg/kg and 10 mg/kg.
GSPT1 and N-Myc western blotting analyses from NCI-H1155 tumors: The NCI-H1155 model was run as described previously and tumors were harvested following 5 consecutive daily PO doses of Compound 345 at 1.0 and 10 mg/kg. Tumors were lysed in 1× lysis buffer (CST, Cat. No. 9803, Lot No. 0000122383) supplemented with protease (Sigma, Cat. No. P8340) and phosphatase ((Sigma, Cat. No. P5726 and P0044) cocktail inhibitors using TissueLyser II (QIAGEN #85300). Samples were spined at 15,000 rpm in an Eppendorf microfuge for 15 min at 4° C. The protein supernatant was collected in a new 1.5 ml tube and the protein concentrations were determined by the Pierce BCA kit (Thermo, Cat. No. 23225). The tumor lysate samples were mixed with 5×SDS-PAGE loading buffer boiled for 5 min and brought to ice for 5 min. 30 μg of protein was loaded onto a NUPAGE 4-12% BT gel (Invitrogen, Cat. No. NPO336BOX) for separation. […] Membranes were imaged on the Odyssey imager (Li-COR) using fluorescence or cheminulinescence detection. […] Data are expressed as mean±SEM derived from at least three different mice and collected at 0, 2, 6, 12, 24, 48, 72 and 96 hr as indicated.

The target in series [4] is T1, GSPT1. As to the kind of experiment: GSPT1 degradation by compound 210 in NSCLC cells. It is filed as cell-based. Also noted: endogenous in cells. The method, then:
GSPT1 was degraded by compound 210 after six hours of treatment in high N-Myc NCI-H1155 and ABC-1 cells with a DC50 of 3 nM and 22 nM, respectively (x-axis represents M concentration of compound 210; y-axis represents the viability in %).

The subject of series [5] is human cell line NCI-H1155 xenograft. As to the kind of experiment: N-Myc-driven mouse xenograft model, NCI-H1155, compound 210 oral. It is filed as in vivo.

T1 sequence (P15170 whole entry): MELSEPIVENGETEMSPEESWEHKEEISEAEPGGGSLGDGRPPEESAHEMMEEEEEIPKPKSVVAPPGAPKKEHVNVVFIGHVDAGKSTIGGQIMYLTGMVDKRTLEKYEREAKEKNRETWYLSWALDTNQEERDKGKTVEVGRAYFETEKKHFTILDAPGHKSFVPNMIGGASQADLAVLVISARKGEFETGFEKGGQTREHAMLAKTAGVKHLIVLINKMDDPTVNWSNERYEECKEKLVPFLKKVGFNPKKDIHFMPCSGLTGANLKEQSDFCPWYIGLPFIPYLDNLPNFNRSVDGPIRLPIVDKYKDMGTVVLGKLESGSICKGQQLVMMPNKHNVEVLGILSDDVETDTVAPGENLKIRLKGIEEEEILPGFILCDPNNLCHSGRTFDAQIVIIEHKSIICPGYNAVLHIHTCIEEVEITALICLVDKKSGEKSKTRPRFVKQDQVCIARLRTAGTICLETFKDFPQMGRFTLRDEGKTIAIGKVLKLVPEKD
T1 sequence (Q96SW2 whole entry): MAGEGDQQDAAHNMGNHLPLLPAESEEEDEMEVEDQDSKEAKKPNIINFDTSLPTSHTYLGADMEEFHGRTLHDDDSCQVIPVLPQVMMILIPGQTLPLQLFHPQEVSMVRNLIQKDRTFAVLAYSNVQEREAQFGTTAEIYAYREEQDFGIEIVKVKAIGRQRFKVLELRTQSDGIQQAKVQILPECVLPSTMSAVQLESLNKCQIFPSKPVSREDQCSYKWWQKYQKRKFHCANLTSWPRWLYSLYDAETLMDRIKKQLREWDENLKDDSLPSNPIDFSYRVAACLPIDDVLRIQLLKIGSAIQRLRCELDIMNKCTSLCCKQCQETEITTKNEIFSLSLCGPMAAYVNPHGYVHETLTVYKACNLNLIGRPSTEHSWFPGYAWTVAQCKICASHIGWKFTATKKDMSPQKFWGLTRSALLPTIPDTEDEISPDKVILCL
T1 sequence (Q16531 whole entry partner): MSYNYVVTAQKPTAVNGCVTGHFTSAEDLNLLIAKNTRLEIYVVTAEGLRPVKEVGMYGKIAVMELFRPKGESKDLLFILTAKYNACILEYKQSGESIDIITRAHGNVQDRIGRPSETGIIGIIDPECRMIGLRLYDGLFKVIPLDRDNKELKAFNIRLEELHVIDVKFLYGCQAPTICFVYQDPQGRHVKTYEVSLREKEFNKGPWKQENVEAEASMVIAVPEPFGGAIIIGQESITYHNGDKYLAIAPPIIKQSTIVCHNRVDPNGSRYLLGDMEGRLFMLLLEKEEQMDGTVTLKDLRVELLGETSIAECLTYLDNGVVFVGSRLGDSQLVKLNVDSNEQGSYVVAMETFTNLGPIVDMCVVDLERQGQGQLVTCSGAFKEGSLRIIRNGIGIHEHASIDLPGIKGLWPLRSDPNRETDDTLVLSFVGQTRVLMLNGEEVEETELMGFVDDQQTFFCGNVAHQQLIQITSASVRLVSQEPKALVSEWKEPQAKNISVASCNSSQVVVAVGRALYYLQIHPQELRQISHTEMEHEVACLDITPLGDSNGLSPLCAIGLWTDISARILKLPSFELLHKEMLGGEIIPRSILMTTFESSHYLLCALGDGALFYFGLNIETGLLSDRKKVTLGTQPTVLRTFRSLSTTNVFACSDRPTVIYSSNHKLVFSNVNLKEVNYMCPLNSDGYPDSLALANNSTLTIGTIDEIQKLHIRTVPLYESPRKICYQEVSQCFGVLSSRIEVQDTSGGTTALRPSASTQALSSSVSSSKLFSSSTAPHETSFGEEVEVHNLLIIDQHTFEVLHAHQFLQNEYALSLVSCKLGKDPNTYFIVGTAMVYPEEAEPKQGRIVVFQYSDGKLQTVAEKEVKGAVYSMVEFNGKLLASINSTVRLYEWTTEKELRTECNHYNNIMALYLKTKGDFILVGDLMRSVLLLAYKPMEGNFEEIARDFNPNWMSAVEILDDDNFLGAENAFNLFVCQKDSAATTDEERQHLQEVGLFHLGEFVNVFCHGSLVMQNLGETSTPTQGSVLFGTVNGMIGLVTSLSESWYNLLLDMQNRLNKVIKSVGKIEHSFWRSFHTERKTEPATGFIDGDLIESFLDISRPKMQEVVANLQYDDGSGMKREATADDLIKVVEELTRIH

For `O=C1CCC(N2Cc3ccc(COC(=O)Nc4cc(OC(F)(F)F)ccc4F)cc3C2=O)C(=O)N1` (stereo not shown) [Compound 345, (2-(2,6-dioxopiperidin-3-yl)-3-oxoisoindolin-5-yl)methyl(2-fluoro-5-(trifluoromethoxy)phenyl)carbamate], in series [1], the tumor volume entry is on record as “anti-tumor activity”. Also, in series [2], the “L-Myc level, timecourse” value is given as “downregulation of L-Myc”. In addition, the “GSPT1 level relative to vehicle-only control” value in series [3] was “substantially reduced”.
In the case of `Cc1ccc(NC(=O)OCc2ccc3c(c2)C(=O)N(C2CCC(=O)NC2=O)C3)cc1Cl` (stereo not shown) [Compound 210], the “relative levels of GSPT1 versus concentration” value in series [4] was “degrades GSPT1 in a concentration dependent manner”. For the same compound, in series [4] (NCI-H1155 and ABC-1 cells), the “extent of GSPT1 degradation” value is on record as “complete degradation of GSPT1”. The tumor growth entry was “tumor growth was suppressed for two weeks” in series [5] (1 mg/kg once daily PO) and “tumor growth inhibition” in series [5] (oral administration (PO)). For the same compound, the tumor size result in series [5] (3 mg/kg once daily PO) is “tumor size decreased, became undetectable by day eight and remained so until the end of the study at day 21”; in series [5] (6 mg/kg PO, five days on and nine days off), “tumor size decreased, became undetectable by day eight and remained so until the end of the study at day 21”. The body weight entry in series [5] (oral administration (PO)) is “no body weight loss observed”.
